Test results published in the supplement of paper PMC4862054.

Assays:
Details in all cases: 72 h
HDQ-P1 [1] = tested on: HDQ-P1
Summary of the method: (§1)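 EC50 was fitted from dose-response curves and censored at the highest concentration tested. To build those curves, breast cancer cell lines (20 µl suspension) were seeded into 384-well plates containing compound at 5 concentrations in 10-fold steps over a compound-specific 10,000-fold range and incubated for 72 h. Readouts were CellTox Green fluorescence (485/520 nm) for cell death and then CellTiter-Glo luminescence for viability, with each plate normalised to 0.1 % DMSO and a positive kill control.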

MDA-MB-468 [2] = tested on: MDA-MB-468
Summary of the method: as §1

CAL-120 [3] = tested on: CAL-120
Summary of the method: as §1

CAL-51 = tested on: CAL-51
Summary of the method: as §1

MDA-MB-231 [4] = tested on: MDA-MB-231
Summary of the method: as §1

MDA-MB-436 [5] = tested on: MDA-MB-436
Summary of the method: as §1

HCC1599 [6] = tested on: HCC1599
Summary of the method: as §1

SK-BR-3 [7] = tested on: SK-BR-3
Summary of the method: as §1

BT-549 [8] = tested on: BT-549
Summary of the method: as §1

CAL-85-1 = tested on: CAL-85-1
Summary of the method: as §1

HCC1143 [9] = tested on: HCC1143
Summary of the method: as §1

Hs578T [10] = tested on: Hs578T
Summary of the method: as §1

HCC1937 [11] = tested on: HCC1937
Summary of the method: as §1

MCF-10A [12] = tested on: MCF-10A
Summary of the method: as §1

BT-474 [13] = tested on: BT-474
Summary of the method: as §1

MDA-MB-453 [14] = tested on: MDA-MB-453
Summary of the method: as §1

CAL-148 [15] = tested on: CAL-148
Summary of the method: as §1

MFM-223 [16] = tested on: MFM-223
Summary of the method: as §1

HDQ-P1 [17] = tested on: HDQ-P1; remark: listed apart in the source
Summary of the method: (§2)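 Compound dissolved in 5 µl medium was placed in 384-well plates before 20 µl of breast cancer cell suspension was added, and the plates were incubated for 72 h. Cells then received 2.5 µl CellTiter-Blue for 2 h at 37 °C, and fluorescence was read at 560/590 nm. EC50 values come from percent-inhibition dose-response fits that were censored at the highest concentration, with plates normalised to vehicle and a positive kill control and rows with a zero drug sensitivity score excluded.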

HDQ-P1 [18] = tested on: HDQ-P1; remark: listed apart in the source
Summary of the method: as §1

MDA-MB-231 [19] = tested on: MDA-MB-231; remark: listed apart in the source
Summary of the method: as §1

MDA-MB-436 [20] = tested on: MDA-MB-436; remark: listed apart in the source
Summary of the method: as §1

HCC1599 [21] = tested on: HCC1599; remark: listed apart in the source
Summary of the method: as §1

HCC1937 [22] = tested on: HCC1937; remark: listed apart in the source
Summary of the method: as §1

MCF-10A [23] = tested on: MCF-10A; remark: listed apart in the source
Summary of the method: as §1

MDA-MB-453 [24] = tested on: MDA-MB-453; remark: listed apart in the source
Summary of the method: as §1

CAL-148 [25] = tested on: CAL-148; remark: listed apart in the source
Summary of the method: as §1

MDA-MB-468 [26] = tested on: MDA-MB-468; remark: listed apart in the source
Summary of the method: as §2

CAL-120 [27] = tested on: CAL-120; remark: listed apart in the source
Summary of the method: as §2

MDA-MB-231 [28] = tested on: MDA-MB-231; remark: listed apart in the source
Summary of the method: as §2

MDA-MB-436 [29] = tested on: MDA-MB-436; remark: listed apart in the source
Summary of the method: as §2

HCC1599 [30] = tested on: HCC1599; remark: listed apart in the source
Summary of the method: as §2

SK-BR-3 [31] = tested on: SK-BR-3; remark: listed apart in the source
Summary of the method: as §2

BT-549 [32] = tested on: BT-549; remark: listed apart in the source
Summary of the method: as §2

HCC1143 [33] = tested on: HCC1143; remark: listed apart in the source
Summary of the method: as §2

Hs578T [34] = tested on: Hs578T; remark: listed apart in the source
Summary of the method: as §2

HCC1937 [35] = tested on: HCC1937; remark: listed apart in the source
Summary of the method: as §2

BT-474 [36] = tested on: BT-474; remark: listed apart in the source
Summary of the method: as §2

MFM-223 [37] = tested on: MFM-223; remark: listed apart in the source
Summary of the method: as §2

DU-4475 [38] = tested on: DU-4475
Summary of the method: as §1

CAL-120 [39] = tested on: CAL-120; remark: listed apart in the source
Summary of the method: as §1

DU-4475 [40] = tested on: DU-4475; remark: listed apart in the source
Summary of the method: as §1

MFM-223 [41] = tested on: MFM-223; remark: listed apart in the source
Summary of the method: as §1

EC50, CellTiter-Glo (MDA-MB-468 [2]) | EC50, CellTiter-Glo (MDA-MB-231 [4]) | EC50, CellTiter-Glo (MDA-MB-436 [5]) | EC50, CellTiter-Glo (HCC1599 [6]) | EC50, CellTiter-Glo (SK-BR-3 [7]) | EC50, CellTiter-Glo (BT-549 [8]) | EC50, CellTiter-Glo (HCC1143 [9]) | EC50, CellTiter-Glo (HCC1937 [11]) | EC50, CellTiter-Glo (BT-474 [13]) | EC50, CellTiter-Glo (MDA-MB-453 [14]) | SMILES | EC50, CellTiter-Glo (HDQ-P1 [1]) | EC50, CellTiter-Glo (CAL-120 [3]) | EC50, CellTiter-Glo (CAL-51) | EC50, CellTiter-Glo (CAL-85-1) | EC50, CellTiter-Glo (Hs578T [10]) | EC50, CellTiter-Glo (MCF-10A [12]) | EC50, CellTiter-Glo (CAL-148 [15]) | EC50, CellTiter-Glo (MFM-223 [16]) | EC50, CellTox Green (HDQ-P1 [18]) | EC50, CellTox Green (MDA-MB-231 [19]) | further results
1.92 µM | 1.81 µM | 2.17 µM | 3.16 µM | 3.12 µM | 3.16 µM | 1.44 µM | 2.1 µM | 2.48 µM | 3.22 µM | COc1cc(Nc2c(C#N)cnc3cc(OCCCN4CCN(C)CC4)c(OC)cc23)c(Cl)cc1Cl [Bosutinib] | 0.972 µM | 1.45 µM | 1.4 µM | 1.58 µM | 9.76 µM | 0.442 µM | 7.59 µM | 1.91 µM | 5.94 µM | 2.03 µM | EC50, CellTiter-Blue viability (HDQ-P1 [17]): 2.55 µM; EC50, CellTox Green (MDA-MB-436 [20]): 6.62 µM; EC50, CellTox Green (HCC1599 [21]): > 10 µM; EC50, CellTox Green (HCC1937 [22]): 5.4 µM; EC50, CellTox Green (MCF-10A [23]): 2.08 µM; EC50, CellTox Green (MDA-MB-453 [24]): 7.28 µM; EC50, CellTox Green (CAL-148 [25]): 2.05 µM; EC50, CellTiter-Blue viability (MDA-MB-468 [26]): 3.18 µM; EC50, CellTiter-Blue viability (CAL-120 [27]): 1.96 µM; EC50, CellTiter-Blue viability (MDA-MB-231 [28]): 2.41 µM; EC50, CellTiter-Blue viability (MDA-MB-436 [29]): 3.11 µM; EC50, CellTiter-Blue viability (HCC1599 [30]): 2.1 µM; EC50, CellTiter-Blue viability (SK-BR-3 [31]): 2.13 µM; EC50, CellTiter-Blue viability (BT-549 [32]): 3.36 µM; EC50, CellTiter-Blue viability (HCC1143 [33]): 1.44 µM; EC50, CellTiter-Blue viability (Hs578T [34]): 4.52 µM; EC50, CellTiter-Blue viability (HCC1937 [35]): 2.67 µM; EC50, CellTiter-Blue viability (BT-474 [36]): 3.12 µM; EC50, CellTiter-Blue viability (MFM-223 [37]): 5.25 µM
10.6 µM | 16.3 µM | 16.3 µM | 14.1 µM | 4.91 µM | 15 µM | 43.2 µM | 15.3 µM | 14.5 µM | 4.03 µM | CCN(CC)CCCC(C)Nc1ccnc2cc(Cl)ccc12 (centres undefined) [Chloroquine] | 20.7 µM | 9.49 µM | 6.56 µM | 11.3 µM | 30.2 µM | 17.3 µM | 12.4 µM | 13.7 µM | 34.6 µM | 10.4 µM | EC50, CellTiter-Glo (DU-4475 [38]): 18.7 µM; EC50, CellTox Green (CAL-120 [39]): 38.4 µM; EC50, CellTox Green (DU-4475 [40]): 96.8 µM; EC50, CellTox Green (MDA-MB-436 [20]): 5.41 µM; EC50, CellTox Green (HCC1599 [21]): 17.9 µM; EC50, CellTox Green (HCC1937 [22]): 23.9 µM; EC50, CellTox Green (MCF-10A [23]): 20.4 µM; EC50, CellTox Green (MDA-MB-453 [24]): 13.4 µM; EC50, CellTox Green (CAL-148 [25]): 5.12 µM; EC50, CellTox Green (MFM-223 [41]): 15.3 µM
